Results from patent publication US11382892B2, “Method for administration” (Hoffmann-La Roche Inc., priority 2012, dated 2022).
Values joined by “and” are separate entries in the source; they are usually repeats but may differ in a detail not shown here. Equal values may be shown once.

How the values were obtained:
MDM2 mRNA = MDM2 mRNA assay in patient tumor biopsies; assay type: in vivo, human; details: for MDM2 mRNA Average FCBL: cohort average; for MDM2 mRNA Median FCBL: cohort median; for MDM2 mRNA FCBL: individual patients, tumor biopsy vs baseline
Method: (§1) The 10 mg tablets contain hypromellose acetate succinate, mannitol, microcrystalline cellulose, croscarmellose sodium, colloidal silicon dioxide, and magnesium stearate. The film-coat consists of hypromellose, titanium dioxide, talc, triacetin, iron oxide yellow, and iron oxide red. The 50 mg, 200 mg, and 400 mg film coated tablets contain the excipients hypromellose acetate succinate, croscarmellose sodium, colloidal silicon dioxide, and magnesium stearate. The film-coat consists of polyvinyl alcohol, titanium dioxide, polyethylene glycol, talc, iron oxide yellow, iron oxide red, and iron oxide black.
(§2) Tumor biopsies were collected at baseline and cycle 1, day 5±2.

[1] = tested on: human osteosarcoma cancer xenograft model SJSA1; experiment: Survival / increase in life span in SJSA1 xenograft; assay type: in vivo, mice; details: for 50% Treatment Days (median survival): vehicle 26 days
Method: For survival assessment, the percent of increased life space (ILS) was calculated as: 100×[(median survival day of treated group−median survival day of control group)/median survival day of control group]. Median survival was determined utilizing Kaplan Meier survival analysis. Survival in treated groups was statistically compared with the vehicle group and survival comparisons were done between groups using the log-rank test (Graph Pad Prism, La Jolla, Calif., USA). Differences between groups were considered significant when the probability value (p) was ≤0:05.
All dose levels are reported as the actual dosage of Compound A rather than including drug plus polymer.
Female athymic Crl:NU-Foxn1nu mice (10/group), obtained from Charles River Laboratories (Wilmington, Del.) were utilized when they were approximately 10-12 weeks of age and weighed 23-25 g. The health of the mice was assessed daily by gross observation and analyses of blood samples taken from sentinel animals housed on shared shelf racks. All animals were allowed to acclimate and recover from any shipping-related stress for a minimum of 72 hours prior to experimental use. Autoclaved water and irradiated food (5058-ms Pico Lab mouse chow, Purina Mills, Richmond, Ind.) were provided ad libitum, and the animals were maintained on a 12 hour light and dark cycle. Cages, bedding and water bottles were autoclaved before use and changed weekly. All animal experiments were conducted in accordance with the Guide for the Care and Use of Laboratory Animals, local regulations, and protocols approved by the Roche Animal Care and Use Committee in an AAALAC accredited facility.
SJSA cells (ATCC) were maintained in RPMI 1640+10% (v/v) heat-inactivated FBS+i % (v/v) […] L-glutamine. Each mouse received 5×10^6 cells in a 1:1 mixture of phosphate buffered saline and Matrigel in a total volume of 0.2 ml. Cells were implanted subcutaneously in the right flank using a 1 cc syringe and a 26 gauge needle.
Treatment duration was 2-4 weeks. Dates of tumor implant, treatment initiation (study start date), and termination of treatment (study end date) can be found in Table 6 below. The starting tumor volume for this study was about 220 mm^3. Tumor volumes and animal body weights were measured three times per week and animals were monitored for clinical signs daily.

Ki-67 protein = experiment: Ki-67 IHC assay in patient tumor biopsies; assay type: in vivo, human; details: for Ki-67 IHC Average % CBL: cohort average; for Ki-67 IHC Median % CBL: cohort median; for Ki-67 IHC % CBL: individual patients, tumor biopsy vs baseline
Method: as §1, §2
The Ki-67 protein is a cellular marker for proliferation. It is strictly associated with cell proliferation and can be measured in tissue sections via immunohistochemistry to determine degree of proliferation. Ki-67 protein is present during all active phases of the cell cycle (G1, S, G2, and mitosis), but is absent from resting cells (00).

solid tumors = experiment: On-going Phase I studies in solid tumors; assay type: in vivo, human
Excerpt: Thus, a 3-5 daily treatment schedule is expected to provide the best benefit ratio taking into consideration efficacy and toxicity.

TUNEL + cells = experiment: TUNEL assay in patient tumor biopsy cells; assay type: in vivo, human; details: for TUNEL + cells (mm2) Average FCBL: cohort average; for TUNEL + cells (mm2) Median FCBL: cohort median; for TUNEL + cells (mm2) FCBL: individual patients, tumor biopsy vs baseline
Method: as §1, §2
Tumor biopsy cells were analyzed via TUNEL (terminal deoxynucleotidyl transferase dUTP nick end labeling) to determine cell apoptosis. TUNEL is a common method for detecting DNA fragmentation that results from apoptotic signaling cascades. The assay relies on the presence of nicks in the DNA which can be identified by terminal deoxynucleotidyl transferase or TdT, an enzyme that will catalyze the addition of dUTPs that are secondarily labeled with a marker.

[2] = 100 mg/kg QD po 2 on/12 off x 2
[3] = 200 mg/kg (two 100 mg/kg doses 8 hr apart) 1x/wk po

SMILES: COc1cc(C(=O)O)ccc1NC(=O)[C@@H]1N[C@@H](CC(C)(C)C)[C@](C#N)(c2ccc(Cl)cc2F)[C@H]1c1cccc(Cl)c1F [Compound A, 4-{[(2R,3S,4R,5S)-4-(4-Chloro-2-fluoro-phenyl)-3-(3-chloro-2-fluoro-phenyl)-4-cyano-5-(2,2-dimethyl-propyl)-pyrrolidine-2-carbonyl]-amino}-3-methoxy-benzoic acid]
- MDM2 mRNA Average FCBL (MDM2 mRNA; BM-A1 800 mg bid Qwk × 3): 1.2
- MDM2 mRNA Median FCBL (MDM2 mRNA; BM-A1 800 mg bid Qwk × 3): 1.1
- MDM2 mRNA FCBL (MDM2 mRNA; BM-A1 800 mg bid Qwk × 3): 1.0 and 1.4 and 1.1
- MDM2 mRNA Average FCBL (MDM2 mRNA; BM-A2 1200 mg bid Qwk × 3): 1.4
- MDM2 mRNA Median FCBL (MDM2 mRNA; BM-A2 1200 mg bid Qwk × 3): 1.3
- MDM2 mRNA FCBL (MDM2 mRNA; BM-A2 1200 mg bid Qwk × 3): 1.0 (2×) and 1.8 and 2.1 and 1.3
- MDM2 mRNA Average FCBL (MDM2 mRNA; BM-B1 400 mg bid × 5 d): 8.5
- MDM2 mRNA Median FCBL (MDM2 mRNA; BM-B1 400 mg bid × 5 d): 8.7
- MDM2 mRNA FCBL (MDM2 mRNA; BM-B1 400 mg bid × 5 d): 5.4 and 3.7 and 12.1 and 12.9
- MDM2 mRNA Average FCBL (MDM2 mRNA; BM-B2 500 mg bid × 3 d): 5.1
- MDM2 mRNA Median FCBL (MDM2 mRNA; BM-B2 500 mg bid × 3 d): 1.3
- MDM2 mRNA FCBL (MDM2 mRNA; BM-B2 500 mg bid × 3 d): 0.2 and 0.7 and 1.3 and 3.8 and 19.6
- MDM2 mRNA Average FCBL (MDM2 mRNA; BM-B3 500 mg qd × 5 d): 2.4
- MDM2 mRNA Median FCBL (MDM2 mRNA; BM-B3 500 mg qd × 5 d): 2.0
- MDM2 mRNA FCBL (MDM2 mRNA; BM-B3 500 mg qd × 5 d): 1.5 and 2.5 and 4.2 and 1.2
- levels of MDM2 mRNA expression in patient's tumors (MDM2 mRNA; doses and schedules of Table 8): increase in the levels of MDM2 mRNA expression
- % Increased Life Span (% ILS) ([1]; 7.5 mg/kg QD po): 23%
- 50% Treatment Days (median survival) ([1]; 7.5 mg/kg QD po): 32 days
- % Increased Life Span (% ILS) ([1]; 15 mg/kg QD po): 62%
- 50% Treatment Days (median survival) ([1]; 15 mg/kg QD po): 42 days
- % Increased Life Span (% ILS) ([1]; 20 mg/kg QD po 20 on/8 off): 77%
- 50% Treatment Days (median survival) ([1]; 20 mg/kg QD po 20 on/8 off): 46 days
- % Increased Life Span (% ILS) ([1]; 30 mg/kg QD po): 127%
- 50% Treatment Days (median survival) ([1]; 30 mg/kg QD po): 59 days
- % Increased Life Span (% ILS) ([1]; 50 mg/kg 1x/wk po): 23%
- 50% Treatment Days (median survival) ([1]; 50 mg/kg 1x/wk po): 32 days
- % Increased Life Span (% ILS) ([1]; 50 mg/kg QD po 2 on/5 off x 4): 119%
- 50% Treatment Days (median survival) ([1]; 50 mg/kg QD po 2 on/5 off x 4): 57 days
- % Increased Life Span (% ILS) ([1]; 50 mg/kg QD po 4 on/10 off x 2): 112%
- 50% Treatment Days (median survival) ([1]; 50 mg/kg QD po 4 on/10 off x 2): 55 days
- % Increased Life Span (% ILS) ([1]; 80 mg/kg QD po 5 on/23 off): 127%
- 50% Treatment Days (median survival) ([1]; 80 mg/kg QD po 5 on/23 off): 59 days
- % Increased Life Span (% ILS) ([1]; 100 mg/kg 1x/wk po): 77%
- 50% Treatment Days (median survival) ([1]; 100 mg/kg 1x/wk po): 46 days
- % Increased Life Span (% ILS) ([1]; 100 mg/kg QD po 2 on/5 off x 4): 188%
- 50% Treatment Days (median survival) ([1]; 100 mg/kg QD po 2 on/5 off x 4): 75 days
- % Increased Life Span (% ILS) [1, 2]: 119%
- 50% Treatment Days (median survival) [1, 2]: 57 days
- % Increased Life Span (% ILS) [1, 3]: 162%
- 50% Treatment Days (median survival) [1, 3]: 68 days
- Ki-67 IHC Average % CBL (Ki-67 protein; BM-A1 800 mg bid Qwk × 3): −8.5%
- Ki-67 IHC Median % CBL (Ki-67 protein; BM-A1 800 mg bid Qwk × 3): −8.5%
- Ki-67 IHC % CBL (Ki-67 protein; BM-A1 800 mg bid Qwk × 3): 14% and −31%
- Ki-67 IHC Average % CBL (Ki-67 protein; BM-A2 1200 mg bid Qwk × 3): −27.8%
- Ki-67 IHC Median % CBL (Ki-67 protein; BM-A2 1200 mg bid Qwk × 3): −33.0%
- Ki-67 IHC % CBL (Ki-67 protein; BM-A2 1200 mg bid Qwk × 3): −57% and 30% and −5% and −75% and −33%
- Ki-67 IHC Average % CBL (Ki-67 protein; BM-B1 400 mg bid × 5 d): −17.7%
- Ki-67 IHC Median % CBL (Ki-67 protein; BM-B1 400 mg bid × 5 d): −13.0%
- Ki-67 IHC % CBL (Ki-67 protein; BM-B1 400 mg bid × 5 d): −97% and −13% and 57%
- Ki-67 IHC Average % CBL (Ki-67 protein; BM-B2 500 mg bid × 3 d): −53.9%
- Ki-67 IHC Median % CBL (Ki-67 protein; BM-B2 500 mg bid × 3 d): −69.8%
- Ki-67 IHC % CBL (Ki-67 protein; BM-B2 500 mg bid × 3 d): 3% and −70% (2×) and −79%
- Ki-67 IHC Average % CBL (Ki-67 protein; BM-B3 500 mg qd × 5 d): −57.1%
- Ki-67 IHC Median % CBL (Ki-67 protein; BM-B3 500 mg qd × 5 d): −66.5%
- Ki-67 IHC % CBL (Ki-67 protein; BM-B3 500 mg qd × 5 d): −67% and −96% and −8%
- tumor proliferation via Ki67 (Ki-67 protein; doses and schedules of Table 9): Decrease levels of tumor proliferation
- toxicity of longer schedules (solid tumors; longer schedules): delayed thrombocytopenia
- continuous exposure after which maximal apoptosis occurs (solid tumors; solid tumors): about 48 hours
- TUNEL + cells (mm2) Average FCBL (TUNEL + cells; BM-A1 800 mg bid Qwk × 3): 1.2
- TUNEL + cells (mm2) Median FCBL (TUNEL + cells; BM-A1 800 mg bid Qwk × 3): 0.8
- TUNEL + cells (mm2) FCBL (TUNEL + cells; BM-A1 800 mg bid Qwk × 3): 0.8 (2×) and 3.2 and 0.1
- TUNEL + cells (mm2) Average FCBL (TUNEL + cells; BM-A2 1200 mg bid Qwk × 3): 2.7
- TUNEL + cells (mm2) Median FCBL (TUNEL + cells; BM-A2 1200 mg bid Qwk × 3): 2.3
- TUNEL + cells (mm2) FCBL (TUNEL + cells; BM-A2 1200 mg bid Qwk × 3): 5.3 and 2.3 and 0.9 and 1.6 and 3.3
- TUNEL + cells (mm2) Average FCBL (TUNEL + cells; BM-B1 400 mg bid × 5 d): 1.7
- TUNEL + cells (mm2) Median FCBL (TUNEL + cells; BM-B1 400 mg bid × 5 d): 1.8
- TUNEL + cells (mm2) FCBL (TUNEL + cells; BM-B1 400 mg bid × 5 d): 0.9 (2×) and 1.8 (2×) and 3.2
- TUNEL + cells (mm2) Average FCBL (TUNEL + cells; BM-B2 500 mg bid × 3 d): 1.7
- TUNEL + cells (mm2) Median FCBL (TUNEL + cells; BM-B2 500 mg bid × 3 d): 0.9
- TUNEL + cells (mm2) FCBL (TUNEL + cells; BM-B2 500 mg bid × 3 d): 0.5 and 0.4 and 0.6 and 5.3 and 1.2 and 1.9
- TUNEL + cells (mm2) Average FCBL (TUNEL + cells; BM-B3 500 mg qd × 5 d): 1.2
- TUNEL + cells (mm2) Median FCBL (TUNEL + cells; BM-B3 500 mg qd × 5 d): 1.2
- TUNEL + cells (mm2) FCBL (TUNEL + cells; BM-B3 500 mg qd × 5 d): 0.6 and 1.7 and 1.2
- apoptosis by TUNEL (TUNEL + cells; doses and schedules of Table 10): increase in apoptosis
